Laboratory results as given in patent publication US11331327B2, “Antibacterial use of halogenated salicylanilides” (UNION therapeutics A/S, priority 2014, dated 2022).
Converted amounts (≈) assume the structure as drawn.

Tested on: S. aureus clinical isolates and S. aureus ATCC 29213
Test: MIC assay according to CLSI criteria, Example 2, S. aureus strains
Format: cell-based, Staphylococcus aureus
Conditions: Staphylococcus aureus
How it was run: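 Wells received roughly 5×10^5 S. aureus cells taken in exponential growth, in cation-adjusted MH broth. Plates held aerobically at 37° C for 18 hours.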

SMILES: CN[C@H](CC(C)C)C(=O)N[C@H]1C(=O)N[C@@H](CC(N)=O)C(=O)N[C@H]2C(=O)N[C@H]3C(=O)N[C@H](C(=O)N[C@H](C(=O)O)c4cc(O)cc(O)c4-c4cc3ccc4O)[C@H](O)c3ccc(c(Cl)c3)Oc3cc2cc(c3O[C@@H]2O[C@H](CO)[C@@H](O)[C@H](O)[C@H]2O[C@H]2C[C@](C)(N)[C@H](O)[C@H](C)O2)Oc2ccc(cc2Cl)[C@H]1O [Vancomycin]
- MIC (ATCC29213, strain 9-1862936): 1 µg/mL (≈ 0.69 µM)
- MIC (ATCC29213, strain 9-2625962): 1 µg/mL (≈ 0.69 µM)
- MIC (ATCC29213, strain 9-2642158): 1 µg/mL (≈ 0.69 µM)
- MIC (ATCC29213, strain 9-2955245): 1 µg/mL (≈ 0.69 µM)
- MIC (ATCC29213, strain 9-26422166): 1 µg/mL (≈ 0.69 µM)
- MIC (ATCC29213, strain 000040C): 1 µg/mL (≈ 0.69 µM)
- MIC (ATCC29213, strain 000041C): 1 µg/mL (≈ 0.69 µM)
- MIC (ATCC29213, strain 000274T): 1 µg/mL (≈ 0.69 µM)
- MIC (ATCC29213, strain 114660U): 1 µg/mL (≈ 0.69 µM)
- MIC (ATCC29213, strain 115015T): 2 µg/mL (≈ 1.38 µM)
- MIC (ATCC29213, strain 115242C): 1 µg/mL (≈ 0.69 µM)
- MIC (ATCC29213, strain 115263C): 2 µg/mL (≈ 1.38 µM)
- MIC (ATCC29213, strain 115268C): 1 µg/mL (≈ 0.69 µM)
- MIC (ATCC29213, strain 115273C): 1 µg/mL (≈ 0.69 µM)
- MIC (ATCC29213, strain 115295C): 1 µg/mL (≈ 0.69 µM)
- MIC (ATCC29213, strain 115303C): 1 µg/mL (≈ 0.69 µM)
- MIC (ATCC29213, strain 115370U): 1 µg/mL (≈ 0.69 µM)
- MIC (ATCC29213, strain 115427C): 1 µg/mL (≈ 0.69 µM)
- MIC (ATCC29213, strain 115445C): 1 µg/mL (≈ 0.69 µM)
- MIC (ATCC29213, strain 115561C): 1 µg/mL (≈ 0.69 µM)
- MIC (ATCC29213, strain 115584D): 2 µg/mL (≈ 1.38 µM)
- MIC (ATCC29213, strain 115628T): 2 µg/mL (≈ 1.38 µM)
- MIC (ATCC29213, strain 115690C): 2 µg/mL (≈ 1.38 µM)
- MIC (ATCC29213, strain 115691T): 1 µg/mL (≈ 0.69 µM)
- MIC (ATCC29213, strain 115740E): 1 µg/mL (≈ 0.69 µM)
- MIC (ATCC29213, strain 115810E): 1 µg/mL (≈ 0.69 µM)
- MIC (ATCC29213, strain 115903T): 1 µg/mL (≈ 0.69 µM)
- MIC (ATCC29213, strain 116122T): 1 µg/mL (≈ 0.69 µM)
- MIC (ATCC29213, strain ATCC 29213): 1 µg/mL (≈ 0.69 µM)
- MIC (ATCC29213, strain E5-1029252): 1 µg/mL (≈ 0.69 µM)
- MIC (ATCC29213, strain E5-1029558): 1 µg/mL (≈ 0.69 µM)
- MIC (ATCC29213, strain E5-1030440): 1 µg/mL (≈ 0.69 µM)
- MIC (ATCC29213, strain E5-1030469): 2 µg/mL (≈ 1.38 µM)
- MIC (ATCC29213, strain E5-1030472): 1 µg/mL (≈ 0.69 µM)
- MIC (ATCC29213, strain E5-1030482): 1 µg/mL (≈ 0.69 µM)
- MIC (ATCC29213, strain E5-1033076 (first line, r202)): 1 µg/mL (≈ 0.69 µM)
- MIC (ATCC29213, strain E5-1033076 (second line, r203)): 1 µg/mL (≈ 0.69 µM)
- MIC (ATCC29213, strain E5-1033088): 1 µg/mL (≈ 0.69 µM)
- MIC (ATCC29213, strain E5-1033091): 1 µg/mL (≈ 0.69 µM)
- MIC (ATCC29213, strain E5-1035277): 1 µg/mL (≈ 0.69 µM)
- MIC (ATCC29213, strain E5-1035284): 1 µg/mL (≈ 0.69 µM)
- MIC (ATCC29213, strain E5-1035775): 1 µg/mL (≈ 0.69 µM)
- MIC (ATCC29213, strain E5-1035779): 1 µg/mL (≈ 0.69 µM)
- MIC (ATCC29213, strain E5-1037958): 1 µg/mL (≈ 0.69 µM)
- MIC (ATCC29213, strain E5-1037971): 1 µg/mL (≈ 0.69 µM)
- MIC (ATCC29213, strain E5-1038279): 1 µg/mL (≈ 0.69 µM)
- MIC (ATCC29213, strain E5-1038286): 1 µg/mL (≈ 0.69 µM)
- MIC (ATCC29213, strain E5-1038294): 1 µg/mL (≈ 0.69 µM)
- MIC (ATCC29213, strain E5-1039684): 1 µg/mL (≈ 0.69 µM)
- MIC (ATCC29213, strain E5-1039697): 1 µg/mL (≈ 0.69 µM)
- MIC (ATCC29213, strain E5-1041977): 2 µg/mL (≈ 1.38 µM)
- MIC (ATCC29213, strain E5-1041979): 1 µg/mL (≈ 0.69 µM)
- MIC (ATCC29213, strain E5-1041980): 1 µg/mL (≈ 0.69 µM)
- MIC (ATCC29213, strain E5-1041987): 1 µg/mL (≈ 0.69 µM)
- MIC (ATCC29213, strain E5-1043184): 1 µg/mL (≈ 0.69 µM)
- MIC (ATCC29213, strain E5-1043668): 1 µg/mL (≈ 0.69 µM)
- MIC (ATCC29213, strain E5-1045179): 1 µg/mL (≈ 0.69 µM)
- MIC (ATCC29213, strain E5-1046019): 1 µg/mL (≈ 0.69 µM)
- MIC (ATCC29213, strain E5-1046020): 1 µg/mL (≈ 0.69 µM)
- MIC (ATCC29213, strain E5-1046039): 1 µg/mL (≈ 0.69 µM)
- MIC (ATCC29213, strain E5-1046070): 1 µg/mL (≈ 0.69 µM)
- MIC (ATCC29213, strain E5-1046074): 1 µg/mL (≈ 0.69 µM)
- MIC (ATCC29213, strain E5-1046085): 2 µg/mL (≈ 1.38 µM)
- MIC (ATCC29213, strain E5-1046096): 1 µg/mL (≈ 0.69 µM)
- MIC (ATCC29213, strain E5-1046296): 1 µg/mL (≈ 0.69 µM)
- MIC (ATCC29213, strain E5-1046297): 1 µg/mL (≈ 0.69 µM)
- MIC (ATCC29213, strain E5-1046298): 1 µg/mL (≈ 0.69 µM)
- MIC (ATCC29213, strain E5-1046723): 2 µg/mL (≈ 1.38 µM)
- MIC (ATCC29213, strain E5-1047585): 1 µg/mL (≈ 0.69 µM)
- MIC (ATCC29213, strain E5-1047606): 1 µg/mL (≈ 0.69 µM)
- MIC (ATCC29213, strain E5-1047924): 1 µg/mL (≈ 0.69 µM)
- MIC (ATCC29213, strain E5-1048204): 2 µg/mL (≈ 1.38 µM)
- MIC (ATCC29213, strain E5-1048428): 1 µg/mL (≈ 0.69 µM)
- MIC (ATCC29213, strain E5-1048654): 1 µg/mL (≈ 0.69 µM)
- MIC (ATCC29213, strain E5-1048670): 2 µg/mL (≈ 1.38 µM)
- MIC (ATCC29213, strain EEFIC 01): 1 µg/mL (≈ 0.69 µM)
- MIC (ATCC29213, strain EEFIC 02): 1 µg/mL (≈ 0.69 µM)
- MIC (ATCC29213, strain K000772): 1 µg/mL (≈ 0.69 µM)
- MIC (ATCC29213, strain K000796): 1 µg/mL (≈ 0.69 µM)
- MIC (ATCC29213, strain K000863): 1 µg/mL (≈ 0.69 µM)
- MIC (ATCC29213, strain K000864): 1 µg/mL (≈ 0.69 µM)
- MIC (ATCC29213, strain K000866): 1 µg/mL (≈ 0.69 µM)
- MIC (ATCC29213, strain K115498): 2 µg/mL (≈ 1.38 µM)
- MIC (ATCC29213, strain K115688): 2 µg/mL (≈ 1.38 µM)
- MIC (ATCC29213, strain K115689): 2 µg/mL (≈ 1.38 µM)
- MIC (ATCC29213, strain R000019): 2 µg/mL (≈ 1.38 µM)
- MIC (ATCC29213, strain R000020): 1 µg/mL (≈ 0.69 µM)
- MIC (ATCC29213, strain R000024): 1 µg/mL (≈ 0.69 µM)
- MIC (ATCC29213, strain U115579): 1 µg/mL (≈ 0.69 µM)
- MIC (ATCC 29213 / MRSA, strain MRSA 01): 1 µg/mL (≈ 0.69 µM)
- MIC (ATCC 29213 / MRSA, strain MRSA 02): 2 µg/mL (≈ 1.38 µM)
- MIC (ATCC 29213 / MRSA, strain MRSA 03): 1 µg/mL (≈ 0.69 µM)
- MIC (ATCC 29213 / MRSA, strain MRSA 04): 2 µg/mL (≈ 1.38 µM)
- MIC (ATCC 29213 / MRSA, strain MRSA 05): 1 µg/mL (≈ 0.69 µM)
- MIC (ATCC 29213 / MRSA, strain MRSA 06): 2 µg/mL (≈ 1.38 µM)
- MIC (ATCC 29213 / MRSA, strain MRSA 07): 1 µg/mL (≈ 0.69 µM)
- MIC (ATCC 29213 / MRSA, strain MRSA 08): 1 µg/mL (≈ 0.69 µM)
- MIC (ATCC 29213 / MRSA, strain MRSA 09): 2 µg/mL (≈ 1.38 µM)
- MIC (ATCC 29213 / MRSA, strain MRSA 10): 1 µg/mL (≈ 0.69 µM)
- MIC (ATCC 29213 / MRSA, strain MRSA 11): 1 µg/mL (≈ 0.69 µM)
- MIC (ATCC 29213 / MRSA, strain MRSA 13): 1 µg/mL (≈ 0.69 µM)
- MIC (ATCC 29213 / MRSA, strain MRSA 14): 1 µg/mL (≈ 0.69 µM)
